The subject of one data set is RAW264.7 cells. The data set is described as follows: Osteoclast differentiation of RAW264.7 cells induced by RANKL, TRAP staining. The data set is classed as cell-based. The note with it: for osteoclastogenesis compared with model group (in words): K29 at 1 μM and 10 μM, K31 at 100 nM and 500 nM. The procedure: RAW264.7 cells were inoculated at a density of 1×10^5/well in 96-well plates and cultured in DMEM containing 10% fetal bovine serum and 1% penicillin/streptomycin. The cells were cultured in a constant-temperature incubator containing 5% CO2 at 37° C. 100 ng/mL of a RANKL inducing solution was added into each well of the administration groups and a model group to culture osteoclasts, the solution (containing RANKL) was changed every 2-3 days, inhibitor working solutions with different concentrations were added into the administration groups after the solution was changed for the 3rd time, a PBS working solution with the same volume was added into the model group, and the cells were continuously cultured for 24 h; and in the control group, the RANKL inducing solution and the inhibitor working solution were not added, and the PBS working solution with the same total volume was added. A culture supernatant was removed, the cells were rinsed 3 times with PBS and stained with a TRAP staining kit, and the multinucleated osteoclasts were observed under an optical microscope and counted.

Details of data set [1]: species or system SD rats. Particulars: rat, in vivo. The procedure: • Chromatographic column: […] Electrospray ionization (ESI); ion spray voltage: 3,500 V; ion source temperature: 300° C.; auxiliary gas: 45 Arb; and sheath gas: 10 Arb. • Intravenous intraperitoneal administration solution: prepared with 0.5% HS-15 normal saline solution with the concentration of 0.2 mg/mL; and • intragastric administration suspension: ground and suspended with 0.5% CMC-Na aqueous solution with the concentration of 0.5 mg/mL. Each administration was tested using 2 SD rats per compound. The two compounds […] were subjected to intravenous injection and intragastric administration respectively. […] All blood samples were anticoagulated by heparin and centrifuged for 10 min at 4,000 g. The supernatant plasma was taken for cryopreservation to be tested. 50 μL of the plasma sample was taken, 150 μL of acetonitrile was added, the mixture was evenly mixed by vortex and centrifuged at 9,100 g for 10 min, and a supernatant was taken and 2 μL of the supernatant was injected and detected on a machine.

For another data set, the target named is Cathepsin K (Homo sapiens (Human), UniProt P43235). The data set is described as follows: Cat K inhibitor screening kit, AFC substrate fluorescence. In kind it is biochemical. The procedure:
Reagent information: Cat K inhibitor screening kit: batch number, 6L23K01500; supplier, BiVision. Drug preparation: compounds were dissolved in DMSO and prepared into 10 mM stock solutions. When in use, the stock solutions were prepared into the required concentrations by using a buffer.
Cathepsin K (CTSK, EC 3.4.22.38) is a lysosomal cysteine protease, participates in osteoclastic bone remodeling and resorption, and can further degrade collagen, gelatin and elastin. The cathepsin K inhibitor screening kit from Biovision uses the ability of the active cathepsin K to cleave a synthetic AFC-based peptide substrate to release AFC and the AFC can be easily quantified by using a fluorometer or fluorescent microplate reader. In the presence of a specific cathepsin K specific inhibitor, the cleavage of the substrate is reduced/eliminated, resulting in a reduction or complete loss of AFC fluorescence. The simple and high-throughput adaptive assay kit can be used to screen/study/characterize a potential inhibitor of the cathepsin K.
20 μL of a buffer, a Cat K inhibitor and test compounds (1 μM and 10 μM) were added to 96-well plates to serve as an EC well, an IC well and an S well, respectively; 50 μL of a Cat K enzyme solution was added into all the wells respectively and the mixture was incubated for 10-15 min at room temperature to establish an enzyme inhibitor complex; 30 μL of a Cat K substrate solution was added into all the wells and the mixture was incubated for 30-60 min at room temperature; and the final volume of the reaction was 100 μL.
The screening method was the same as 1.1, the concentrations of the test compounds were set between 0.1 nM and 10 μM, 4-5 concentrations were selected for detection, IC50 curves were drawn, and IC50 values were calculated.

The next data set deals with Cathepsin S. The data set can be described thus: Screening of Cathepsin S, fluorescence. Particulars: >> inhibition rate did not exceed 20% at test concentration; > greater than 35%; ≈ about 50%; < less than 50%. The data set is classed as biochemical. The procedure:
10 μL of a buffer, a Cat S inhibitor and test compounds (1 μM and 10 μM) were added to 96-well plates to serve as an EC well, an IC well and an S well, respectively; 50 μL of a […] was added into all the wells respectively and the mixture was incubated for 10-15 min at room temperature to establish an enzyme inhibitor complex; 40 μL of a Cat S substrate solution was added into all the wells and the mixture was incubated for 30-60 min at room temperature; and the final volume of the reaction was 100 μL.
(§1) The screening method was the same as above, the concentrations of the test compounds were set between 0.1 nM and 10 μM, 4-5 concentrations were selected for detection, IC50 curves were drawn, and IC50 values were calculated.

The next data set concerns the target Cathepsin B (Homo sapiens (Human), UniProt P07858). The data set is described as follows: Screening of Cathepsin B, fluorescence. In kind it is biochemical. Particulars: >> inhibition rate did not exceed 20% at test concentration; > greater than 35%; ≈ about 50%; < less than 50%. The procedure:
10 μL of a buffer, a Cat B inhibitor and test compounds (1 μM and 10 μM) were added to 96-well plates to serve as an EC well, an IC well and an S well, respectively; 50 μL of a Cat B enzyme solution was added into all the wells respectively and the mixture was incubated for 10-15 min at room temperature to establish an enzyme inhibitor complex; 40 μL of a Cat B substrate solution was added into all the wells and the mixture was incubated for 30-60 min at room temperature; and the final volume of the reaction was 100 μL.
as §1

SMILES strings stand for the structures. Read-outs that look alike come from different tables or passages of the source.

Chain of Cathepsin K (P43235 115-329): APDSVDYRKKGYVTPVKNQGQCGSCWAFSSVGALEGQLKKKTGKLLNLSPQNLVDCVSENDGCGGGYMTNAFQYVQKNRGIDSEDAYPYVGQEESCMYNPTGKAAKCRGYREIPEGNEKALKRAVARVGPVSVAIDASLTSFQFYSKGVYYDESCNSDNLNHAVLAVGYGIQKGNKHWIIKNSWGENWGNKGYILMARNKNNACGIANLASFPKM

Compound `COc1cccc2c3c([nH]c12)CCN(C(=O)[C@@H]1CCCC[C@H]1C(=O)N[C@H]1COCC1=O)C3` [Compound K29, (1R,2R)-2-(6-methoxy-2,3,4,5-tetrahydro-1H-pyrido[4,3-b]indole-2-carbonyl)-N—(S)-(4-oxotetrahydrofuran-3-yl)-cyclohexane-1-carboxamide] displayed a Number of osteoclasts in the data set with RAW264.7 cells (1 μM) of 13. In the data set with RAW264.7 cells (10 μM), the Number of osteoclasts is 11.25 and the “osteoclastogenesis (in words)” value is on record as “obviously inhibited the osteoclastogenesis”. Further, the “osteoclastogenesis compared with model group (in words)” value with RAW264.7 cells is recorded as “tendency to inhibit osteoclastogenesis”. The F in data set [1] amounted to 62.1%. Also, in data set [1] (iv, 1 mg/kg), the Tmax (as a rule, the time from dosing to the highest level) came to 1.98 min. Besides, in data set [1] (po), the Bioavailability % was 62.1%; the CLz amounted to 26.7 mL/min/kg; the Cmax (in general, the highest concentration seen after dosing) is 1,285 ng/mL; the Tmax was determined as 15 min. For the same compound, in data set [1] (po), the Vz is recorded as 3.83 L/kg and the t1/2z came to 99 min. For the same compound, the Tmax in data set [1] (po, 5 mg/kg) was determined as 15 min.

Consider `CN1CCN(c2ccc(-c3ccc(CN(CC(C)(C)C)c4nccc(C#N)n4)cc3)cc2)CC1` [Compound K13, 2-[(2,2-dimethylpropyl) ({4-[4-(4-methylpiperazin-1-yl)phenyl]phenyl}methyl)amino]pyrimidine-4-carbonitrile], for which the IC50 on Cathepsin K and at Cathepsin K (stated in text) was under 10 nM in each case.

On to `CC(C)(C)CN(Cc1ccc(-c2ccccc2)cc1)c1nccc(C#N)n1` [Compound K2, 2-[(2,2-dimethylpropyl)[(4-phenylphenyl)methyl]amino]pyrimidine-4-carbonitrile], for which the IC50 (in general, the concentration at which inhibition is half-maximal) on Cathepsin K lay in the range of 100 to 500 nM. Moreover, the “Cat S/K ratio of inhibitory activities” value in the data set on Cathepsin S is >>2,100. The “Cat B/K ratio of inhibitory activities” value at Cathepsin B is on record as >>2,100.

As for `CC(C)(C)CN(Cc1ccc(-c2ccc(C#N)s2)cc1)c1nccc(C#N)n1` [Compound K7, 2-({[4-(5-cyanothiophen-2-yl)phenyl]methyl}(2,2-dimethylpropyl)amino)pyrimidine-4-carbonitrile], the IC50 at Cathepsin K was in the range of 100 to 500 nM.

In the case of `CS(=O)(=O)c1ccc(-c2ccc(CN(CC3CCCCC3)c3nccc(C#N)n3)cc2)cc1` [Compound K16, 2-[(cyclohexylmethyl) ({4-[4-(methylsulfonyl)phenyl]phenyl}methyl)amino]pyrimidine-4-carbonitrile], at Cathepsin K, the IC50 was in the range of 100 to 500 nM. Moreover, the “Cat S/K ratio of inhibitory activities” value in the data set on Cathepsin S is recorded as >>3,300. For the same compound, the “Cat B/K ratio of inhibitory activities” value on Cathepsin B is recorded as >>3,300.

For `CN1CCN(c2ccc(-c3ccc(CN(CC4CCCCC4)c4nccc(C#N)n4)cc3)cc2)CC1` [Compound K15, 2-[(cyclohexylmethyl) ({4-[4-(4-methylpiperazin-1-yl)phenyl]phenyl}methyl)amino]pyrimidine-4-carbonitrile], the IC50 against Cathepsin K and against Cathepsin K (stated in text) was under 10 nM each time. Moreover, the “Cat S/K ratio of inhibitory activities” value with Cathepsin S was “≈7,460”. In addition, at Cathepsin B, the “Cat B/K ratio of inhibitory activities” value is recorded as >15,000.

With `CC(C)(C)CN(Cc1ccc(-c2ccc(S(C)(=O)=O)cc2)cc1)c1nccc(C#N)n1` [Compound K6, 2-[(2,2-dimethylpropyl) ({4-[4-(methylsulfonyl)phenyl]phenyl}methyl)amino]pyrimidine-4-carbonitrile], on Cathepsin K, the IC50 fell in the range of 100 to 500 nM. Besides, the “Cat S/K ratio of inhibitory activities” value in the data set with Cathepsin S was >>3,300. In addition, on Cathepsin B, the “Cat B/K ratio of inhibitory activities” value is >>3,300.

As to `CC(C)(F)C[C@H](N[C@@H](c1ccc(-c2ccc(S(C)(=O)=O)cc2)cc1)C(F)(F)F)C(=O)NC1(C#N)CC1` [Odanacatib, reference compound], the “Cat S/K ratio of inhibitory activities” value with Cathepsin S is reported as under 290. The “Cat B/K ratio of inhibitory activities” value at Cathepsin B was over 590.

`CC(C)(C)CN(Cc1ccc(-c2cscn2)cc1)c1nccc(C#N)n1` [Compound K17, 2-(neopentyl(4-(thiazol-4-yl)benzyl)amino)pyrimidine-4-carbonitrile] displayed an IC50 against Cathepsin K of 100 to 500 nM.

`O=C1COCC1NC(=O)[C@@H]1CCCC[C@H]1C(=O)N1CCc2c([nH]c3c(F)cccc23)C1` (stereo partly drawn) [Compound K19, (1R,2R)-2-(8-fluoro-2,3,4,9-tetrahydro-1H-pyrido[3,4-b]indole-2-carbonyl)-N-(4-oxotetrahydrofuran-3-yl)cyclohexane-1-carboxamide] gave an IC50 at Cathepsin K of 10 to 100 nM.

As for `CN1CCN(c2ccc(CN(CC(C)(C)C)c3nccc(C#N)n3)cc2)CC1` [Compound K1, 2-[(2,2-dimethylpropyl){[4-(4-methylpiperazin-1-yl)phenyl]methyl}amino]pyrimidine-4-carbonitrile], the IC50 against Cathepsin K was 10 to 100 nM; on Cathepsin K (stated in text), under 100 nM. Also, the “Cat S/K ratio of inhibitory activities” value with Cathepsin S is given as over 800. Besides, the “Cat B/K ratio of inhibitory activities” value on Cathepsin B was >1,600.

`COc1cc(F)cc2c3c([nH]c12)CCN(C(=O)[C@@H]1CCCC[C@H]1C(=O)N[C@H]1COCC1=O)C3` [Compound K31, (1R,2R)-2-(8-fluoro-6-methoxy-2,3,4,5-tetrahydro-1H-pyrido[4,3-b]indole-2-carbonyl)-N—(S)-(4-oxotetrahydrofuran-3-yl)-cyclohexane-1-carboxamide] gave a Number of osteoclasts with RAW264.7 cells (100 nM) of 13.25. In addition, in the data set with RAW264.7 cells (500 nM), the Number of osteoclasts came to 14. The “osteoclastogenesis compared with model group (in words)” value with RAW264.7 cells was “tendency to inhibit osteoclastogenesis”. The F in data set [1] turned out to be 51.0%. For the same compound, the Tmax in data set [1] (iv, 1 mg/kg) was 1.98 min. Further, in data set [1] (po), the Bioavailability % was 51.0%, the CLz is 27.8 mL/min/kg, the Cmax was determined as 936 ng/mL and the Tmax stood at 15 min. Further, in data set [1] (po), the Vz came out at 4.38 L/kg and the t1/2z worked out at 109 min. In addition, the Tmax in data set [1] (po, 5 mg/kg) amounted to 15 min.

Turning to `Cc1ccc(-c2ccc(CN(CC(C)(C)C)c3nccc(C#N)n3)cc2)s1` [Compound K10, 2-[(2,2-dimethylpropyl){[4-(5-methylthiophen-2-yl)phenyl]methyl}amino]pyrimidine-4-carbonitrile], at Cathepsin K, the IC50 lay within 100 to 500 nM.

The values above are taken from patent publication US20250145576A1, “CATHEPSIN K INHIBITOR, AND PREPARATION METHOD THEREFOR AND USE THEREOF” (SHANDONG NEW TIME PHARMACEUTICAL CO., LTD., priority 2022, published 2025).
